Measurements: US5674490A, “Antibiotic GE1655 complex and its factors A, B, and C” (Gruppa Lepetit S.p.A., priority 1995, dated 1997)

Tested on: Candida albicans L145
Test: Candida vaginitis in ovariectomized rats
Type: in vivo, ovariectomized female CD rats
Conditions: for Mean log10 cfu ± SD/sample: i.va. twice daily, after 3 days of treatment, GE1655 complex 10, miconazole 4 mg/rat per treat.
Procedure: The in vivo protective activity of the antibiotic GE1655 complex against Candida albicans in ovariectomized female CD rats (weighing 150-170 g, obtained from Charles River 7 days after surgery) was determined. Candida albicans L145 was grown overnight in Sabouraud dextrose broth (Difco) at 30° C. The culture was centrifuged at 6000 r.p.m. for 20 min at 4° C., the yeast was resuspended in nutrient broth N.2 (Oxoid) containing 15% (v/v) glycerol and stored at -80° C. After 7 days of acclimatization in a temperature and humidity controlled room, the animals received 4 mg of estradiol benzoate (Sigma) subcutaneously. Four days later they were infected by intravaginal (i.va.) instillation with 0.025 ml of thawed Candida albicans suspension (about 5×10^6 cfu/rat).
GE1655 complex and miconazole (Sigma) were dissolved in dimethylsulfoxide (DMSO) and then diluted 1:10 with PEG 400; this risulted in homogeneous suspensions. Animals received 0.1 ml of one of these suspensions i.va. twice daily for three days starting 24 h after the infection. Control animals were treated with the vehicle (10% DMSO in PEG 400).
The presence of Candida was determined by inserting a disposable 0.01 ml calibrated loop into the vagina. The sample was resuspended in 0.2 ml of sterile peptonized saline and cultivated on Sabouraud dextrose agar containing 100 mg/l of rifampicin to inhibit growth of bacterial contaminants.

For `Clc1ccc(COC(Cn2ccnc2)c2ccc(Cl)cc2Cl)c(Cl)c1` (stereo not drawn) [Miconazole, miconazole], the “vaginal load compared with the control group” value (2 experiments, 10 mg of GE1655 complex or 4 mg of miconazole) was “significantly lower (p<0.01)”, the “Mean log10 cfu ± SD/sample” value (exp. 1) was 1.20 ± 1.01 log10 cfu/sample and the “Mean log10 cfu ± SD/sample” value (exp. 2) was 1.24 ± 0.86 log10 cfu/sample.
